Experimental data as given in patent publication US6653110B2 (Ajinomoto Co., Inc., priority 2001, dated 2003).

Test system: Enterobacter agglomerans AJ13601 strain
Experiment: Growth inhibition by organic acid at acidic pH (main culture in jar fermenter)
Type: cell-based
Conditions: for Growth inhibition: organic acid 0.5 g/L in main culture medium, pH 4.5, 34° C.
Method: Therefore, an experiment concerning the growth inhibition by an organic acid was performed at an acidic pH.
The Enterobacter agglomerans AJ13601 strain was cultured on LBG agar medium (10 g/L of trypton, 5 g/L of yeast extract, 10 g/L of NaCl and 15 g/L of agar) containing 25 mg/L of tetracycline hydrochloride and 25 mg/L of chloramphenicol at 30° C. for 14 hours, and one platinum loop of the cells were taken and inoculated into 300 mL of a seed culture medium having the following composition in a 1 L-volume jar fermenter to perform seed culture at 34° C. at pH 6.0.
50 g/L of sucrose, 0.4 g/L of magnesium sulfate heptahydrate, 4.0 g/L of ammonium sulfate, 2.0 g/L of monopotassium dihydrogenphosphate, 4.0 g/L of yeast extract, 0.01 g/L of ferrous sulfate heptahydrate, 0.01 g/L manganese sulfate pentahydrate, 0.4 g/L of L-lysine hydrochloride, 0.4 g/L of DL-methionine, 0.4 g/L of DL-α,ε-diaminopimelic acid, 25 mg/L of tetracycline hydrochloride and 25 mg/L of chloramphenicol
pH was controlled by adding ammonia gas during the culture. The seed culture was terminated by observing depletion of the saccharide in the seed culture medium as a marker, and the seed culture broth was inoculated into 300 mL of a main culture medium contained in 1 L-volume jar fermenters in an amount of 20% of the volume of the main culture medium to perform the main culture. The composition of the main culture medium is shown below. When an experiment for the growth inhibition by an organic acid is performed, the experiment was performed by adding the organic acid at a predetermined concentration.
20 g/L of glucose, 0.4 g/L of magnesium sulfate heptahydrate, 5.0 g/L of ammonium sulfate, 6.0 g/L of monopotassium dihydrogenphosphate, 1.5 g/L of sodium chloride, 0.01 g/L of ferrous sulfate heptahydrate, 0.01 g/L of manganese sulfate pentahydrate, 0.8 g/L of L-lysine hydrochloride, 0.6 g/L of DL-methionine, 0.6 g/L of DL-α,ε-diaminopimelic acid, 25 mg/L of tetracycline hydrochloride, 25 mg/L of chloramphenicol, 6.0 g/L of yeast extract and 0.75 g/L of calcium chloride dihydrate
The culture temperature was adjusted to 34° C., and pH was controlled to a predetermined pH by adding ammonia gas.
Experiments for the growth inhibition effect at an acidic pH (pH 4.5) were first performed with various organic acids.

`CC(=O)O` [Acetic acid] was tested, and the Growth inhibition was “Observed” and the Growth inhibition (listed as acetic acid) was “evident growth inhibition”.
In the case of `O=CO` [Formic acid], the growth of cells (formic acid 0.5 g/L, pH 4.5 (FIG. 11)) is reported as “hardly observed”, the “pH region in which growth inhibition by formic acid was not observed” value (formic acid concentration 0.5 g/L, inhibition observed at lower pH (FIG. 11)) is reported as ≥ 5.5 and the Growth inhibition is reported as “Observed”. The Growth inhibition (listed as formic acid) was “evident growth inhibition” and the “formic acid concentration in the medium at which growth inhibition was not observed” value (pH 4.5 (FIG. 12)) was ≤ 0.20 g/L.
For `CC(O)C(=O)O` (stereo not drawn) [Lactic acid], the Growth inhibition was “Not observed” and the Growth inhibition (listed as lactic acid) was “growth rate comparable to that obtained with the control medium”.
`CCC(=O)O` [Propionic acid] was tested, and the Growth inhibition was “Observed” and the Growth inhibition (listed as propionic acid) was “evident growth inhibition”.
In the case of `O=C(O)CCC(=O)O` [Succinic acid], the Growth inhibition is reported as “Not observed” and the Growth inhibition (listed as succinic acid) is reported as “did not show growth inhibition”.
In the case of `O=C(O)/C=C/C(=O)O` [fumaric acid], the Growth inhibition is reported as “did not show growth inhibition”.
`O=C(O)CC(O)C(=O)O` (stereo not drawn) [malic acid] was tested, and the Growth inhibition was “did not show growth inhibition”.
